Test results published in patent US12344599B2, “Prodigiosin analogs and methods of use” (Institute For Cancer Research, priority 2016, dated 2025).
pIC50: −log10 of the molar value.

Legend:
FaDu = assay: CellTiterGlo cell viability assay, FaDu; assay type: cell-based; conditions: Homo sapiens, head & neck squamous cell carcinoma, p53 R248L, 72 hours
Experimental: (§1) • 1) Cell lines: HT29, SW480, DLD-1, HCT116, and p53-null HCT116 cells, H1975, MDA-MD-231, U251, FaDu, CAL-27, PANC-1, Aspc-1, and MRC5 were obtained from the ATCC and cultured as recommended. Cells were regularly authenticated by bioluminescence, growth, and morphologic observation. The cells were routinely examined for Mycoplasma and all cell lines underwent STR authentication. • 2) Western blotting: After treatment, protein lysates were collected for Western blot analysis. 15 μg of protein was used for SDS-PAGE. After primary and secondary antibody incubations, the signal was detected by chemiluminescent detection kit, imaged by Syngene (Imgen Technologies). […] The cell viability was assessed by CellTiterGlo bioluminescent cell proliferation assay (Promega), following the manufacturer's protocol. Bioluminescence imaging was measured using the IVIS imager. Percentage of cell viability (mean±SEM) at each dose was calculated against the respective DMSO control. The IC50 values were determined from the sigmoidal dose-response curves using GraphPad Prims4. • 4) Caspase activity assay: Cells were seeded in 96-well plate (1×10^4 cells/well). […] The caspase 3/7 activity was assessed by Caspase-Glo® 3/7 Assay kit (Promega), following the manufacturer's protocol. Bioluminescence imaging was measured using the IVIS imager. […]

SW480 = assay: CellTiterGlo cell viability assay, SW480; assay type: cell-based; conditions: Homo sapiens; SW480, colorectal cancer, p53 R273, P309S, 72 hours
Experimental: as §1

[1] = system: p53 target genes in HT29 cells; assay: RNA-Seq gene profiling with IPA analysis; assay type: cell-based, human; conditions: HT29, 1 μM for 24 hours
Experimental: Having confirmed that PG3-Oc induces apoptosis in multiple p53-expressing mutant cancer cell lines, whether this small molecule restored p53 pathway signaling was investigated in HT29 cells after treatment with 1 μM PG3-Oc for 24 hours. For this purpose, gene profiling was performed by RNA-Seq and bioinformatics analysis, such as IPA (Ingenuity pathway analysis), GSEA (gene set enrichment analysis) and GO (gene ontology) (See details at Methods and Materials). […] Key p53 target gene CDKN1A (p21) that negatively regulate cell cycle and other p53 target genes that regulate apoptosis such as, TNFRSF10B (DR5), BBC3 (PUMA), BIRC5 (Survivin), TP53INP1 (Teap) were identified in canonical p53 pathway analysis. […] To verify that the behavior of regulation of p53 target genes by PG3-Oc is similar to p53 protein, based on published data (Fischer, Oncogene, 2017, 36(28), 3943-3956), genes directly repressed (FIG. 89) and activated (FIG. 90) by the p53 transcription factor were selected. […] This implicates that PG3-Oc is able to restore the p53 pathway.

HT29 = assay: CellTiterGlo cell viability assay, HT29; assay type: cell-based; conditions: Homo sapiens, HT-29; HT29, colorectal cancer, p53 R273H, 72 hours
Experimental: as §1

SW480 cells = assay: qRT-PCR of p53 target gene mRNA, SW480; assay type: cell-based, human; conditions: SW480, 1 μM
Experimental: Total RNA was isolated from PG3-Oc-treated cells using the Quick-RNA mini prep kit (Zymo Research, Irvine, CA) according to the manufacturer's protocol. 500 ng of total RNA was used to generate cDNA using SuperScript III first-strand synthesis system with random primers (Invitrogen), following the manufacturer's protocol. Real-time PCR was performed using POWER SYBR GREEN mast mix (Applied Biosystem) for DR5, p21, PUMA, GAPDH, and TaqMan primer-probes for detection of c-Myc mRNA levels on 7900HT Sequence Detection System (Applied Biosystem). Primers having SEQ ID NOs:1-6 (see above) were used. Taq Prob IDs for c-Myc (HS 00153408) and GAPDH (HA 99999905). ΔΔCt method was used to analyze and report fold changes of the indicated genes.

Compound: CCCCCCCCOC(=O)CCc1c(C)[nH]c(/C=C2\N=C(c3ccc[nH]3)C=C2OC)c1C [PG3-Oc, Octyl (Z)-3-(5-((4′-methoxy-1H,5′H-[2,2′-bipyrrol]-5′-ylidene)methyl)-2,4-dimethyl-1H-pyrrol-3-yl)propanoate]
- pIC50 (FaDu): 7.18
- pIC50 (SW480): 7.02
- PMAIP1 (Noxa) increase as compared to control [1]: 1.9 fold
- pIC50 (HT29): 7.18
- induction of p21 mRNA (SW480 cells; 8 and 19 hours post-treatment): no significant change
- DR5 mRNA upregulation (SW480 cells; 19 hours post-treatment): about 2 fold
